Experimental data as given in patent publication US5030760A, “Tetrahydrophthalimides, and their production and use” (Sumitomo Chemical Company, Ltd., priority 1981, dated 1991).

Legend:
[1] = tested on: broad-leaved weed; experiment: Test Example 7, flooded paddy pot dripping, herbicidal activity; type: in vivo; settings: 3 weeks; further: ranges in brackets are in %
Procedure: (§1) The application of the tetrahydrophthalimides (I) as herbicides will be illustratively shown in the following Examples wherein the phytotoxicity to cultivated plants and the herbicidal activity on weeds were evaluated as follows: the aerial parts of the test plants were cut off and weighed (fresh weight); the percentage of the fresh weight of the treated plant to that of the untreated plant was calculated with the latter fresh weight taken as 100; and the crop damage and the herbicidal activity were evaluated by the standard given in the table below. The rating values of phytotoxicity, 0 and 1, and those of herbicidal effect, 5 and 4, are generally regarded as satisfactory to protect cultivated plants and control weeds, respectively. The rating values in the paddy field test alone were calculated from the dry weight of the test plants.
(§2) Wagner's pots (1/5000 are) were filled with paddy field soil and water was poured therein to make a flooded condition. Rice seedlings of the 3-leaf stage were transplanted and tubers of slender spikerush and arrowhead and the seeds of barnyardgrass, monochoria and broad-leaved weed were sowed therein and grown for 5 days. When germination occurs, a designed amount of the test compound formulated into an emulsifiable concentrate according to Preparation Example 2 was applied to the pots by dripping. The test plants were grown for a further 3 weeks, and herbicidal activity and phytotoxicity were examined. The herbicidal activity was evaluated in figures ranging from 0 to 5. The phytotoxicity to the crop plants was also indicated on the same standard as that of the herbicidal activity.

[2] = tested on: arrowhead; experiment: as above; type: in vivo, Sagittaria pygmaea; settings: 3 weeks; further: ranges in brackets are in %
Procedure: as §1, §2

[3] = tested on: barnyardgrass; experiment: as above; type: in vivo, Echinochloa crus-galli; settings: 3 weeks
Procedure: as §1, §2

[4] = tested on: corn; experiment: Test Example 2, field foliar treatment, phytotoxicity to corn; type: in vivo; settings: 3 weeks; further: ranges in brackets are in %
Procedure: as §1
(§3) Seeds of corn and broad-leaved weeds such as cocklebur, common purslane and tall morningglory were sown in the field as previously laid up in ridges, each ridge having an upper width of 1 m. At the time when the corn grew up to the 6-leaf stage and the broad-leaved weeds up to 2 to 5-leaf stages, a designed amount of the test compound formulated into an emulsifiable concentrate according to Preparation Example 2 and dispersed in water was sprayed to the foliage of the test plants with three replications over the top by means of a small hand sprayer at a spray volume of 5 liters per are. After cultivation for 3 weeks, herbicidal activity and phytotoxicity were examined.

[5] = tested on: rice plant; experiment: Test Example 7, flooded paddy pot dripping, phytotoxicity to rice plant; type: in vivo; settings: 3 weeks; further: ranges in brackets are in %
Procedure: as §1, §2

[6] = tested on: slender spikerush; experiment: Test Example 7, flooded paddy pot dripping, herbicidal activity; type: in vivo, Eleocharis acicularis; settings: 3 weeks; further: ranges in brackets are in %
Procedure: as §1, §2

[7] = tested on: tall morningglory; experiment: Test Example 2, field foliar treatment, herbicidal activity; type: in vivo, Ipomoea purpurea; settings: 3 weeks; further: ranges in brackets are in %
Procedure: as §1, §3

[8] = tested on: monochoria; experiment: Test Example 7, flooded paddy pot dripping, herbicidal activity; type: in vivo, Monochoria vaginalis; settings: 3 weeks; further: ranges in brackets are in %
Procedure: as §1, §2

[9] = tested on: common purslane; experiment: Test Example 2, field foliar treatment, herbicidal activity; type: in vivo, Portulaca oleracea; settings: 3 weeks; further: ranges in brackets are in %
Procedure: as §1, §3

[10] = tested on: cocklebur; experiment: as above; type: in vivo, Xanthium pennsylvanicum; settings: 3 weeks; further: ranges in brackets are in %
Procedure: as §1, §3

[11] = tested on: corn; experiment: Test Example 1, foliar treatment, phytotoxicity to corn; type: in vivo; settings: 3 weeks; further: ranges in brackets are in %
Procedure: as §1
(§4) Plastic beakers (diameter, 10 cm; height, 10 cm) were filled with upland field soil, and the seeds of corn, barnyardgrass, wild oat, wild mustard and velvetleaf were separately sown in the beakers and grown for 2 weeks in the greenhouse. A designed amount of the test compound was sprayed to the foliage of the test plants by means of a small hand sprayer. After the spraying, the test plants were further grown for 3 weeks in the greenhouse, and herbicidal activity was examined. In this foliar treatment, the test compounds were formulated into an emulsifiable concentrate according to Preparation Example 2 and applied at a spray volume of 5 liters per are by dispersing it in water with the addition of a spreading agent.

[12] = tested on: sicklepod; experiment: Test Example 5, spraying over the top, herbicidal activity; type: in vivo, Cassia obtusifolia; settings: sprayed over the top, 20 days; further: ranges in brackets are in %
Procedure: as §1
(§5) Plastic trays (35 cm×25 cm×15 cm) were filled with upland field soil, and the seeds of tall morningglory, velvetleaf, jimsonweed, sicklepod, hemp sesbania, prickly side, Johnsongrass, green foxtail and large crabgrass and the seeds of soybean were sown therein. A designed amount of the test compound formulated into a wettable powder according to Preparation Example 1 and dispersed in water was sprayed over the top by means of a small hand sprayer at a spray volume of 5 liters per are. After the spraying, the test plants were grown in greenhouse for 20 days, and phytotoxicity and herbicidal activity were examined.

[13] = tested on: tall morningglory; experiment: as above; type: in vivo, Ipomoea purpurea; settings: sprayed over the top, 20 days
Procedure: as §1, §5

[14] = tested on: cotton; experiment: Test Example 4, pre-emergence treatment, phytotoxicity to cotton; type: in vivo; settings: 2.5 g/are, 20 days; further: ranges in brackets are in %
Procedure: as §1
(§6) Plastic beakers (diameter, 10 cm; height, 10 cm) were filled with upland field soil, and the seeds of corn, cotton and soybean and the seeds of morningglory, velvetleaf, Johnsongrass and green foxtail were separately sown in the beakers. A designed amount of the test compound was sprayed over the top by means of a small hand sprayer. After the spraying, the test plants were grown for 20 days in the greenhouse, and herbicidal activity and phytotoxicity were examined. In this pre-emergence treatment, the test compounds were formulated into an emulsifiable concentrate according to Preparation Example 2 and applied at a spray volume of 5 liters per are by dispersing it in water with the addition of a spreading agent.

[15] = tested on: prickly sida; experiment: Test Example 5, spraying over the top, herbicidal activity; type: in vivo, Sida spinosa; settings: sprayed over the top, 20 days; further: ranges in brackets are in %
Procedure: as §1, §5

[16] = tested on: velvetleaf; experiment: Test Example 4, pre-emergence treatment, herbicidal activity; type: in vivo, Abutilon theophrasti; settings: 20 days; further: ranges in brackets are in %
Procedure: as §1, §6

[17] = tested on: hemp sesbania; experiment: Test Example 5, spraying over the top, herbicidal activity; type: in vivo, Sesbania exaltator; settings: sprayed over the top, 20 days; further: ranges in brackets are in %
Procedure: as §1, §5

[18] = tested on: Johnsongrass; experiment: Test Example 4, pre-emergence treatment, herbicidal activity; type: in vivo, Sorghum halepense; settings: 20 days; further: ranges in brackets are in %
Procedure: as §1, §6

[19] = tested on: soybean; experiment: Test Example 5, spraying over the top, phytotoxicity to soybean; type: in vivo; settings: sprayed over the top, 20 days; further: ranges in brackets are in %
Procedure: as §1, §5

[20] = tested on: green foxtail; experiment: Test Example 4, pre-emergence treatment, herbicidal activity; type: in vivo, Setaria viridis; settings: 20 days; further: ranges in brackets are in %
Procedure: as §1, §6

[21] = tested on: wild oat; experiment: Test Example 1, foliar treatment, herbicidal activity; type: in vivo, Avena fatua; settings: 3 weeks; further: ranges in brackets are in %
Procedure: as §1, §4

[22] = tested on: morningglory; experiment: Test Example 4, pre-emergence treatment, herbicidal activity; type: in vivo; settings: 10 g/are, 20 days; further: ranges in brackets are in %
Procedure: as §1, §6

[23] = tested on: large crabgrass; experiment: Test Example 5, spraying over the top, herbicidal activity; type: in vivo, Digitaria sanguinalis; settings: sprayed over the top, 20 days; further: ranges in brackets are in %
Procedure: as §1, §5

[24] = tested on: velvetleaf; experiment: as above; type: in vivo, Abutilon theophrasti; settings: sprayed over the top, 20 days
Procedure: as §1, §5

[25] = tested on: Johnsongrass; experiment: as above; type: in vivo, Sorghum halepense; settings: sprayed over the top, 20 days
Procedure: as §1, §5

[26] = tested on: velvetleaf; experiment: Test Example 1, foliar treatment, herbicidal activity; type: in vivo, Abutilon theophrasti; settings: 3 weeks; further: ranges in brackets are in %
Procedure: as §1, §4

[27] = tested on: green foxtail; experiment: Test Example 5, spraying over the top, herbicidal activity; type: in vivo, Setaria viridis; settings: sprayed over the top, 20 days; further: ranges in brackets are in %
Procedure: as §1, §5

[28] = tested on: barnyardgrass; experiment: Test Example 1, foliar treatment, herbicidal activity; type: in vivo, Echinochloa crus-galli; settings: 3 weeks; further: ranges in brackets are in %
Procedure: as §1, §4

[29] = tested on: wild mustard; experiment: as above; type: in vivo, Brassica kaber; settings: 3 weeks
Procedure: as §1, §4

[30] = tested on: jimsonweed; experiment: Test Example 5, spraying over the top, herbicidal activity; type: in vivo, Datura stramonium; settings: sprayed over the top, 20 days; further: ranges in brackets are in %
Procedure: as §1, §5

[31] = tested on: soybean; experiment: Test Example 4, pre-emergence treatment, phytotoxicity to soybean; type: in vivo; settings: 20 days; further: ranges in brackets are in %
Procedure: as §1, §6

[32] = tested on: corn; experiment: Test Example 4, pre-emergence treatment, phytotoxicity to corn; type: in vivo; settings: 20 days; further: ranges in brackets are in %
Procedure: as §1, §6
Wherever Herbicidal activity, Barnyardgrass is given: ranges in brackets are in %.
Wherever Herbicidal activity, Tall morningglory is given: ranges in brackets are in %.
Wherever Herbicidal activity, Velvetleaf is given: ranges in brackets are in %.

Compound: CCCCCOc1cc(N2C(=O)C3=C(CCCC3)C2=O)c(F)cc1Cl [Compound No. 7, N-(4-chloro-2-fluoro-5-n-amyloxyphenyl)-3,4,5,6-terahydrophthalimide]
- Herbicidal activity, Broad-leaved weed ([1]; 1.25 g/are): 5 (90-100)
- Herbicidal activity, Broad-leaved weed ([1]; 2.5 g/are): 5 (90-100)
- Herbicidal activity, Broad-leaved weed ([1]; 5 g/are): 5 (90-100)
- Herbicidal activity, Allowhead ([2]; 1.25 g/are): 3 (50-69)
- Herbicidal activity, Allowhead ([2]; 2.5 g/are): 4 (70-89)
- Herbicidal activity, Allowhead ([2]; 5 g/are): 5 (90-100)
- Herbicidal activity, Barnyardgrass ([3]; 1.25 g/are): 4 (70-89)
- Herbicidal activity, Barnyardgrass ([3]; 2.5 g/are): 5 (90-100)
- Herbicidal activity, Barnyardgrass ([3]; 5 g/are): 5 (90-100)
- Phytotoxicity, Corn ([4]; 0.16 g/are): 0 (100)
- Phytotoxicity, Corn ([4]; 0.32 g/are): 0 (100)
- Phytotoxicity, Corn ([4]; 0.63 g/are): 0 (100)
- Phytotoxicity, Rice plant ([5]; 1.25 g/are): 0 (0-9)
- Phytotoxicity, Rice plant ([5]; 2.5 g/are): 0 (0-9)
- Phytotoxicity, Rice plant ([5]; 5 g/are): 0 (0-9)
- Herbicidal activity, Slender spikerush ([6]; 1.25 g/are): 4 (70-89)
- Herbicidal activity, Slender spikerush ([6]; 2.5 g/are): 5 (90-100)
- Herbicidal activity, Slender spikerush ([6]; 5 g/are): 5 (90-100)
- Herbicidal activity, Tall morningglory ([7]; 0.16 g/are): 2 (21-40)
- Herbicidal activity, Tall morningglory ([7]; 0.32 g/are): 3 (11-20)
- Herbicidal activity, Tall morningglory ([7]; 0.63 g/are): 4 (1-10)
- Herbicidal activity, Monochoria ([8]; 1.25 g/are): 5 (90-100)
- Herbicidal activity, Monochoria ([8]; 2.5 g/are): 5 (90-100)
- Herbicidal activity, Monochoria ([8]; 5 g/are): 5 (90-100)
- Herbicidal activity, Common purslane ([9]; 0.16 g/are): 5 (0)
- Herbicidal activity, Common purslane ([9]; 0.32 g/are): 5 (0)
- Herbicidal activity, Common purslane ([9]; 0.63 g/are): 5 (0)
- Herbicidal activity, Cocklebur ([10]; 0.16 g/are): 4 (1-10)
- Herbicidal activity, Cocklebur ([10]; 0.32 g/are): 4 (1-10)
- Herbicidal activity, Cocklebur ([10]; 0.63 g/are): 5 (0)

Compound: COc1cc(N2C(=O)C3=C(CCCC3)C2=O)c(F)cc1Br [Compound No. 12, N-(4-bromo-2-fluoro-5-methoxyphenyl)-3,4,5,6-tetrahydrophthalimide]
- Phytotoxicity, Corn ([11]; 1.25 g/are): 1 (90-99)
- Phytotoxicity, Corn ([11]; 5 g/are): 1 (90-99)
- Herbicidal activity, Sicklepod ([12]; 3 g/are): 4 (1-10)
- Herbicidal activity, Sicklepod ([12]; 9 g/are): 5 (0)
- Herbicidal activity, Tall morningglory ([13]; 3 g/are): 4 (1-10)
- Herbicidal activity, Tall morningglory ([13]; 9 g/are): 5 (0)
- Phytotoxicity, Cotton [14]: 0 (100)
- Herbicidal activity, Prickly sida ([15]; 3 g/are): 5 (0)
- Herbicidal activity, Prickly sida ([15]; 9 g/are): 5 (0)
- Herbicidal activity, Velvetleaf ([16]; 2.5 g/are): 5 (0)
- Herbicidal activity, Velvetleaf ([16]; 10 g/are): 5 (0)
- Herbicidal activity, Hemp sesbania ([17]; 3 g/are): 4 (1-10)
- Herbicidal activity, Hemp sesbania ([17]; 9 g/are): 5 (0)
- Herbicidal activity, Johnsongrass ([18]; 2.5 g/are): 5 (0)
- Herbicidal activity, Johnsongrass ([18]; 10 g/are): 5 (0)
- Phytotoxicity, Soybean ([19]; 3 g/are): 0 (100)
- Phytotoxicity, Soybean ([19]; 9 g/are): 0 (100)
- Herbicidal activity, Green foxtail ([20]; 2.5 g/are): 5 (0)
- Herbicidal activity, Green foxtail ([20]; 10 g/are): 5 (0)
- Herbicidal activity, Wild cat ([21]; 1.25 g/are): 1 (41-60)
- Herbicidal activity, Wild cat ([21]; 5 g/are): 5 (0)
- Herbicidal activity, Morningglory [22]: 5 (0)
- Herbicidal activity, Large crabgrass ([23]; 3 g/are): 5 (0)
- Herbicidal activity, Large crabgrass ([23]; 9 g/are): 5 (0)
- Herbicidal activity, Velvetleaf ([24]; 3 g/are): 5 (0)
- Herbicidal activity, Velvetleaf ([24]; 9 g/are): 5 (0)
- Herbicidal activity, Johnsongrass ([25]; 3 g/are): 5 (0)
- Herbicidal activity, Johnsongrass ([25]; 9 g/are): 5 (0)
- Herbicidal activity, Velvetleaf ([26]; 1.25 g/are): 5 (0)
- Herbicidal activity, Velvetleaf ([26]; 5 g/are): 5 (0)
- Herbicidal activity, Green foxtail ([27]; 3 g/are): 5 (0)
- Herbicidal activity, Green foxtail ([27]; 9 g/are): 5 (0)
- Herbicidal activity, Barnyardgrass ([28]; 1.25 g/are): 2 (21-40)
- Herbicidal activity, Barnyardgrass ([28]; 5 g/are): 5 (0)
- Herbicidal activity, Wild mustard ([29]; 1.25 g/are): 4 (1-10)
- Herbicidal activity, Wild mustard ([29]; 5 g/are): 5 (0)
- Herbicidal activity, Jimsonweed ([30]; 3 g/are): 5 (0)
- Herbicidal activity, Jimsonweed ([30]; 9 g/are): 5 (0)
- Phytotoxicity, Soybean ([31]; 2.5 g/are): 0 (100)
- Phytotoxicity, Soybean ([31]; 10 g/are): 0 (100)
- Phytotoxicity, Corn ([32]; 2.5 g/are): 0 (100)
- Phytotoxicity, Corn ([32]; 10 g/are): 1 (90-99)
